Data set [1] can be described thus: Cytotoxicity against human NCI-H838 cells harboring wild type EGFR at 500 nM. The class given is toxicity, cell-based. The following applies: read-out: INH.
The test system of a further data set is BaF3. Nature of the data set: cells. Conditions: Mus musculus.
Data set [2] relates to Epidermal growth factor receptor (Homo sapiens), P00533 [L858R,T790M,C797S]. The following applies: dose 500.0 nM.

From ChEMBL document CHEMBL5335804, “Design, synthesis and biological evaluation of 2-phenylaminopyrimidine derivatives as EGFR inhibitors” (Bioorg Med Chem Lett, 2024) come the findings set out here.

Chain of Epidermal growth factor receptor (Homo sapiens), P00533 [L858R,T790M,C797S] (P00533 whole entry T790M/C797S/L858R): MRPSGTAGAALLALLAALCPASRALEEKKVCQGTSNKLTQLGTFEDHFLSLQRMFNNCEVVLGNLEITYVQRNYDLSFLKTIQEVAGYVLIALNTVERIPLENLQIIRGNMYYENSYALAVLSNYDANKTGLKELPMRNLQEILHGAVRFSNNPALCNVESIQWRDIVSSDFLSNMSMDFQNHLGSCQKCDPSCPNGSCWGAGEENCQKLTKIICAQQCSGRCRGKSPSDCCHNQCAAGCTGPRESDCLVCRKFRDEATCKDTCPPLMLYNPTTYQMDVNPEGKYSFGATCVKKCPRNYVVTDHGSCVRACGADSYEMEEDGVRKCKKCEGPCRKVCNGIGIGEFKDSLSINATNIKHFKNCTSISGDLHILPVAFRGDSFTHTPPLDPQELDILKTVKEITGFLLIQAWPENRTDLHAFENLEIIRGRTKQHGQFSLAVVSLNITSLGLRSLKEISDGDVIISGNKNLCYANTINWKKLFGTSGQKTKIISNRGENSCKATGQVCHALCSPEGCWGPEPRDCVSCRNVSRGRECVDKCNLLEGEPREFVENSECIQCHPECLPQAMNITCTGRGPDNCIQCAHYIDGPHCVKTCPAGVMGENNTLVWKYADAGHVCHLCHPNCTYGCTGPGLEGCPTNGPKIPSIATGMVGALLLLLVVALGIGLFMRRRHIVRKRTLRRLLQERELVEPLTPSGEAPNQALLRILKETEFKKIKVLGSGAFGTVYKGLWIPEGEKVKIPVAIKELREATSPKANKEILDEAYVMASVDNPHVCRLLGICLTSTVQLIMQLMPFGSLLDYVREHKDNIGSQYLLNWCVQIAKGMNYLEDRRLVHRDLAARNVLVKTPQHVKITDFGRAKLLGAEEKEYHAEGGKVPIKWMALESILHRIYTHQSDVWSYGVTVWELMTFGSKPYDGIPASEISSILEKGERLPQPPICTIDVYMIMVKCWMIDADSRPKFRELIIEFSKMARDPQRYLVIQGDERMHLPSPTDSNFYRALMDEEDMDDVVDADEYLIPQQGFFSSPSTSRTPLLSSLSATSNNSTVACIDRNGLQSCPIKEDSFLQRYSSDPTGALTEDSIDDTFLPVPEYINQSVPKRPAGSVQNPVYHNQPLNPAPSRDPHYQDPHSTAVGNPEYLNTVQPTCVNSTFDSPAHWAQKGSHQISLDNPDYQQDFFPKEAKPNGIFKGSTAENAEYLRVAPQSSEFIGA

As for `COc1cc(N2CCC(N3CCN(C)CC3)CC2)c(C)cc1Nc1nccc(-n2cc(CNC(C)CO)c(-c3ccccc3)n2)n1` (stereo not drawn), the cytotoxicity at 0.5 µM in data set [1] was 25.6%. This molecule also came in with an IC50 with BaF3 of 143 nM.

Take `COc1cc(N2CCC(N3CCN(C)CC3)CC2)c(C)cc1Nc1nccc(-n2cc(CN[C@H](C)CO)c(-c3ccccc3)n2)n1`: in data set [1], the cytotoxicity at 0.5 µM is 17.1%. Further, the IC50 with BaF3 was 260 nM.

On to `COc1cc(N2CCC(N3CCN(C)CC3)CC2)c(C)cc1Nc1nccc(-n2cc(CNC(CO)C(C)C)c(-c3ccccc3)n2)n1` (stereo not drawn), for which the cytotoxicity at 0.5 µM in data set [1] was 31.8%. In the data set on BaF3, this molecule showed an IC50 of 292 nM.

On to `COc1cc(N2CCC(N3CCN(C)CC3)CC2)ccc1Nc1ncc(Cl)c(Nc2ccccc2P(C)(C)=O)n1` [BRIGATINIB], for which the cytotoxicity at 0.5 µM in data set [1] was determined as 92.4%. For the same molecule, in data set [2], the inhibition stood at 84.6%. Besides, inhibition in the data set on BaF3 was half-maximal at 542 nM (IC50).

In the case of `COc1cc(N2CCC(N3CCN(C)CC3)CC2)c(C)cc1Nc1nccc(-n2cc(CN[C@@H](C)CO)c(-c3ccccc3)n2)n1`, in data set [1], the cytotoxicity at 0.5 µM turned out to be 14.9%. Half-maximal inhibition in the data set on BaF3 (IC50) was put at 106 nM.

Take `COc1cc(N2CCC(N3CCN(C)CC3)CC2)c(C)cc1Nc1nccc(-n2cc(CNCCO)c(-c3ccccc3)n2)n1`: the cytotoxicity at 0.5 µM in data set [1] was 33.2%. This molecule registered an IC50 in the data set with BaF3 of 485 nM.

The IC50 is the concentration that gives 50% inhibition. The inhibition is the percentage by which the read-out fell short of the control. High values mean strong suppression, low ones little suppression.
